Laboratory results from ChEMBL document CHEMBL1201862, “PubChem BioAssay data set” (2004).
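In this assay, cells in 96-well plates receive the compound at five concentrations for 48 hours. Endpoints are linearly interpolated between the surrounding concentrations. GI50: concentration for 50% inhibition of growth.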 Calls of active or inactive are those of the source. No stated cut-off is given here; in the data, active = GI50 up to about 1.1 µM and inactive = higher.

Assays:
Assay in all cases: growth of human tumour cells (NCI), 48 h
HT-29 = system: HT-29
SK-MEL-5 = system: SK-MEL-5
NCI-H522 = system: NCI-H522
SW-620 = system: SW-620
RXF 393 = system: RXF 393
SF-539 = system: SF-539
EKVX = system: EKVX
HCT-116 = system: HCT-116
DMS-273 = system: DMS-273
SN12C = system: SN12C
A498 = system: A498
SK-MEL-28 = system: SK-MEL-28
SNB-75 = system: SNB-75
KM12 = system: KM12
IGROV-1 = system: IGROV-1

Measured: GI50

CC#CC1/C(=C\C(=O)OC)CCCC1O (stereo unspecified)
inactive: HT-29 > 100 µM | SK-MEL-5 > 100 µM | NCI-H522 > 100 µM | SW-620 > 100 µM | RXF 393 > 100 µM | SF-539 > 100 µM | EKVX > 100 µM | HCT-116 > 100 µM | DMS-273 > 100 µM | SN12C > 100 µM | A498 > 100 µM | SK-MEL-28 > 100 µM | SNB-75 > 100 µM | KM12 > 100 µM

Cc1cc(=O)oc2c1cc(OCC(=O)OCCN1CCCCC1)c1occ(C)c12
inactive: HT-29 > 100 µM | SK-MEL-5 > 100 µM | SW-620 > 100 µM | RXF 393 > 100 µM | SF-539 > 100 µM | EKVX > 100 µM | HCT-116 > 100 µM | DMS-273 > 100 µM | SN12C > 100 µM | A498 > 100 µM | SK-MEL-28 > 100 µM | SNB-75 > 100 µM | KM12 > 100 µM

O=c1/c(=C/c2ccco2)sc2nc3ccccc3n12
inactive: HT-29 > 10 µM | SK-MEL-5 > 10 µM | NCI-H522 > 10 µM | SW-620 > 10 µM | RXF 393 63.5 µM | SF-539 > 10 µM | EKVX 59.2 µM | IGROV-1 > 10 µM | HCT-116 > 10 µM | DMS-273 86.5 µM | SN12C > 10 µM | A498 > 10 µM | SK-MEL-28 > 10 µM | SNB-75 27 µM | KM12 > 100 µM

c1ccc([S+](c2ccccc2)c2ccc(Sc3ccc([S+](c4ccccc4)c4ccccc4)cc3)cc2)cc1
inactive: HT-29 18.2 µM | SK-MEL-5 5.81 µM | NCI-H522 12 µM | SW-620 37.9 µM | RXF 393 19.7 µM | SF-539 31.3 µM | EKVX 73.6 µM | IGROV-1 43.2 µM | HCT-116 21.8 µM | DMS-273 19.5 µM | SN12C 17.9 µM | A498 44.4 µM | SK-MEL-28 34.7 µM | SNB-75 19.2 µM | KM12 21.3 µM

CC1(C)CCC(=O)c2c(O)ccc(O)c21
inactive: HT-29 30.1 µM | SK-MEL-5 > 100 µM | NCI-H522 55.8 µM | SW-620 48.4 µM | RXF 393 18.4 µM | SF-539 77.4 µM | EKVX > 100 µM | IGROV-1 > 100 µM | HCT-116 51.9 µM | DMS-273 > 100 µM | SN12C > 100 µM | SK-MEL-28 39.8 µM | SNB-75 23.1 µM | KM12 83.9 µM

CC(NS(=O)(=O)c1ccc(Cl)cc1)C(=O)O (stereo unspecified)
inactive: HT-29 > 100 µM | SK-MEL-5 > 100 µM | NCI-H522 > 100 µM | SW-620 > 100 µM | RXF 393 > 100 µM | SF-539 > 100 µM | EKVX > 100 µM | IGROV-1 > 100 µM | DMS-273 > 100 µM | SN12C > 100 µM | A498 > 100 µM | SK-MEL-28 > 100 µM | SNB-75 > 100 µM | KM12 > 100 µM

N#CC1CCCCC1NC1(C#N)CCCCC1 (stereo unspecified)
inactive: HT-29 > 100 µM | SK-MEL-5 > 100 µM | NCI-H522 > 100 µM | SW-620 > 100 µM | RXF 393 > 100 µM | SF-539 > 100 µM | EKVX > 100 µM | IGROV-1 > 100 µM | DMS-273 > 100 µM | SN12C > 100 µM | A498 > 100 µM | SK-MEL-28 > 100 µM | SNB-75 > 100 µM | KM12 > 100 µM

C=C1CC2C(=O)N(c3ccccc3)C(=O)C2CC1n1[nH]c(=O)n(Cc2ccccc2)c1=O (stereo unspecified)
inactive: HT-29 > 100 µM | SK-MEL-5 > 100 µM | NCI-H522 > 100 µM | SW-620 > 100 µM | RXF 393 > 100 µM | SF-539 > 100 µM | EKVX > 100 µM | IGROV-1 > 100 µM | HCT-116 > 100 µM | DMS-273 > 100 µM | SN12C > 100 µM | A498 > 100 µM | SK-MEL-28 > 100 µM | SNB-75 > 100 µM | KM12 > 100 µM

COC(=O)C(C(=O)C(=O)Nc1ccccc1C)c1nc2ccc([N+](=O)[O-])cc2nc1O (stereo unspecified)
inactive: HT-29 > 100 µM | SK-MEL-5 > 100 µM | NCI-H522 47.3 µM | SW-620 > 100 µM | RXF 393 > 100 µM | SF-539 > 100 µM | EKVX > 100 µM | IGROV-1 > 100 µM | HCT-116 > 100 µM | DMS-273 > 100 µM | SN12C > 100 µM | A498 > 100 µM | SK-MEL-28 > 100 µM | SNB-75 > 100 µM | KM12 > 100 µM

CSc1ccc2c(cc1=O)[C@@H](NC(=O)c1cc(O)c(O)c(O)c1)CCc1cc(O)c(O)c(O)c1-2
inactive: HT-29 24 µM | SK-MEL-5 19.8 µM | NCI-H522 21.4 µM | SW-620 17.1 µM | SF-539 24.7 µM | EKVX 23.2 µM | HCT-116 16 µM | DMS-273 20.5 µM | SN12C 18.1 µM | A498 > 100 µM | SK-MEL-28 32.3 µM | SNB-75 23.4 µM | KM12 20.9 µM

N/N=C(\c1nc2ccc(Cl)cc2nc1O)C(O)c1ccc(Cl)c(Cl)c1 (stereo unspecified)
inactive: HT-29 > 100 µM | SK-MEL-5 > 100 µM | NCI-H522 > 100 µM | SW-620 59.2 µM | RXF 393 > 100 µM | SF-539 > 100 µM | EKVX > 100 µM | IGROV-1 > 100 µM | HCT-116 48.1 µM | DMS-273 81.1 µM | SN12C > 100 µM | SK-MEL-28 > 100 µM | SNB-75 31 µM | KM12 70.5 µM

O=C(O)C12C3C4C1C1C2C3C41I (stereo unspecified)
inactive: HT-29 > 100 µM | SK-MEL-5 > 100 µM | NCI-H522 > 100 µM | SW-620 > 100 µM | SF-539 > 100 µM | EKVX > 100 µM | IGROV-1 > 100 µM | HCT-116 > 100 µM | DMS-273 > 100 µM | SN12C > 100 µM | A498 > 100 µM | SK-MEL-28 > 100 µM | SNB-75 70.6 µM | KM12 > 100 µM

COC(=O)CC[C@@H](NC(=O)C(C)NC(=O)COC1C(O)C(COC(=O)CCCCCCCCCCNC(=O)c2ccc([N+](=O)[O-])c3[nH]c4cc(Br)ccc4c(=O)c23)OC(OCc2ccccc2)C1NC(C)=O)C(N)=O (stereo partly specified)
inactive: HT-29 > 100 µM | SK-MEL-5 68.7 µM | NCI-H522 32.7 µM | SW-620 > 100 µM | RXF 393 56.6 µM | SF-539 > 100 µM | EKVX 17.3 µM | IGROV-1 19.5 µM | HCT-116 > 100 µM | DMS-273 > 100 µM | SN12C > 100 µM | SK-MEL-28 > 100 µM | SNB-75 > 100 µM | KM12 > 100 µM

O=S(=O)(N/N=C\c1c2ccccc2[n+]([O-])c2ccccc12)c1ccc(Cl)cc1
inactive: HT-29 > 100 µM | SK-MEL-5 > 100 µM | NCI-H522 93.8 µM | SW-620 > 100 µM | EKVX > 100 µM | IGROV-1 > 100 µM | HCT-116 45.5 µM | DMS-273 93.3 µM | SN12C > 100 µM | A498 > 100 µM | SK-MEL-28 > 100 µM | SNB-75 26.1 µM | KM12 > 100 µM

CCOC(=O)C(C)(C)Oc1ccc2c(C)c(-c3ccc(Cl)cc3)c(=O)oc2c1
inactive: HT-29 20.7 µM | SK-MEL-5 13.4 µM | SW-620 > 100 µM | RXF 393 > 100 µM | SF-539 > 100 µM | EKVX 70.3 µM | IGROV-1 75.9 µM | HCT-116 43 µM | DMS-273 37.6 µM | SN12C > 100 µM | A498 > 100 µM | SK-MEL-28 > 100 µM | SNB-75 35.8 µM

O=C1C(Cl)=C(Cl)C(=O)N1c1ccc(Cl)c(Cl)c1Cl
inactive: HT-29 51.4 µM | SK-MEL-5 > 100 µM | NCI-H522 14.4 µM | SW-620 35.5 µM | SF-539 > 100 µM | EKVX 61.5 µM | IGROV-1 > 100 µM | HCT-116 85.9 µM | DMS-273 > 100 µM | SN12C 58.1 µM | A498 > 100 µM | SK-MEL-28 > 100 µM | SNB-75 > 100 µM | KM12 > 100 µM

CCCCCCc1cc2c(C)c(C)c(=O)oc2cc1OCCCOc1cc2oc(=O)c(C)c(C)c2cc1CCCCCC
inactive: HT-29 > 100 µM | SK-MEL-5 > 100 µM | NCI-H522 > 100 µM | SW-620 > 100 µM | RXF 393 43.4 µM | SF-539 > 100 µM | EKVX > 100 µM | IGROV-1 > 100 µM | HCT-116 > 100 µM | DMS-273 > 100 µM | A498 > 100 µM | SK-MEL-28 > 100 µM | KM12 > 100 µM

Cc1ccc2nc3c(C(=O)NCCN(C)C)cccc3nc2c1
inactive: HT-29 2.32 µM | SK-MEL-5 4.6 µM | NCI-H522 8.81 µM | SW-620 1.92 µM | RXF 393 3.56 µM | SF-539 4.2 µM | EKVX 5.65 µM | IGROV-1 7.03 µM | HCT-116 1.59 µM | DMS-273 2.84 µM | SN12C 3.42 µM | A498 2.47 µM | SK-MEL-28 4.7 µM | SNB-75 5.48 µM | KM12 3.94 µM

CC1(C)OC(C[C@]2(C#N)C[C@H](CCl)OC(C)(C)O2)C[C@@H](C[C@]2(C#N)C[C@H](CCl)OC(C)(C)O2)O1 (stereo partly specified)
inactive: HT-29 > 100 µM | SK-MEL-5 51.6 µM | NCI-H522 > 100 µM | SW-620 > 100 µM | SF-539 > 100 µM | EKVX > 100 µM | IGROV-1 > 100 µM | HCT-116 60.4 µM | DMS-273 > 100 µM | SN12C > 100 µM | A498 > 100 µM | SK-MEL-28 > 100 µM | SNB-75 > 100 µM | KM12 > 100 µM
